The source of these data is patent publication US12336986B2, “Treatment and prevention of ocular neurodegenerative disorder” (The Jackson Laboratory, priority 2015, dated 2025).

Assay [1] deals with D2 retinas. Kind of assay: Lipid droplet formation in inner retina (Oil Red O staining). In kind it is in vivo, mouse. The following applies: D2 mice, 12-month, NAM 550 mg/kg/day. On the procedure: For Oil Red O staining, slides were warmed to room temperature, washed quickly in 60% isopropanol, incubated at RT in Oil Red O and Haematoxylin for 15 mins, washed in 60% isopropanol again, mounted and coverslipped. Oil Red O stained retinal sections were imaged using a Nikon Eclipse […].

The subject of assay [2] is D2 retinas. Nature of the assay: Metabolic phenotyping of retina: total NAD, NAD(t) (NAD+/NADH). In kind it is in vivo, mouse. On the procedure: We performed additional metabolic profiling of neural retinas from 4-, 9-, and 12-months old D2 and D2-Gpnmb^+ eyes. Metabolic profiling was performed using targeted assays following the manufacturers recommendations. The following metabolites were profiled: NAD+/NADH (i.e. total NAD, NAD(t)), GSH/GSSG (i.e. total glutathione, glutathione(t)), and pyruvate.
For GSH/GSSO and NAD^+/NADH quantification retinas were dissociated (as above) and compounds measured following the manufacturer's instructions (GSH/GSSG, Cayman Chemical; NAD^+/NADH, Biovision). Results were calculated according to the standard curve generated by using standards from the kits. Final metabolite concentrations for each samples were normalized to total protein concentration measured by Bradford assay.

Assay [3] relates to DBA/2J (D2) mice. Nature of the assay: Pattern electroretinography (PERG) in D2 mice. In kind it is in vivo, mouse. The settings on record: for visual function, PERG amplitude: D2 mice. How it is done:
PERG was recorded subcutaneously from the snout as previously reported. Briefly: patterned stimuli (gratings of 0.05 cycles/degree, 100% contrast) generated on LED panels were presented at each eye separately with slight different frequencies around 1 Hz. Waveforms were retrieved using an asynchronous averaging method (Chou et al., Invest Ophthalmol Vis Sci 55, 2469-2475, 2014).
Mice were anaesthetized using ketamine/xylazine (Savinova et al., BMC Genet 2, 12, 2001) and body temperature maintained at 37° C. on a feedback-controlled heated stage monitored by rectal thermometer.

The next assay deals with SNAP-25. Kind of assay: Synapse loss (SNAP-25 staining) in D2 retinas. In kind it is in vivo, mouse. The settings on record: D2 mice, NAM 550 mg/kg/day. How it is done: (§1) For immunofluorescence staining, mice were euthanized by cervical dislocation, their eyes enucleated and placed in 4% PFA ON. Retinas were dissected and flat-mounted onto slides, permeabilized with 0.1% Triton-X for 15 mins, blocked with 2% BSA in PBS and stained ON at RT in primary antibody (see below for list of antibodies).
(§2) After primary antibody incubation, retinas were washed 5 times in PBS, stained for 4 hrs at RT with secondary antibody. Slides were then washed a further 5 times with PBS, stained with DAPI for 15 mins, mounted with fluoromount, coverslipped and sealed with nail-polish.
(§3) For retinal sections, eyes were cryoprotected in 30% sucrose ON, frozen in OCT and cryosectioned at 18 μm. Slides were warmed to room temperature and the procedure above was followed. Retinas were imaged on a Zeiss AxioObserver for low resolution counts. Retinal sections were imaged on a Leica SP8 far higher resolution images.

The next assay deals with HIF-1α. Kind of assay: HIF-1α induction (immunostaining, RNA-seq) in D2 retinas. In kind it is in vivo, mouse. The following applies: D2 mice, early glaucoma, NAM 550 mg/kg/day. How it is done: as §1, §2, §3
Another assay deals with C57BL/6J (B6) mice. Kind of assay: Soluble murine TNFα intravitreal injection model of RGC death. In kind it is in vivo, mouse. The following applies: NAM 550 mg/kg/day, 12-week post-TNFα administration. On the procedure: To induce delayed retinal ganglion cell degeneration, soluble murine TNFα (1 ng/μL) was intravitrally injected as previously described (Nakazawa et al., J Neurosci 26, 12633-12641, 2006). […] Mice we sacrificed at 12-week and RGC counts performed.

For the next assay, the system named is γH2AX. Nature of the assay: DNA damage (γH2AX staining) in D2 retinas. The format is in vivo, mouse. The following applies: D2 mice, early glaucoma, NAM 550 mg/kg/day. How it is done:
as §1, §2, §3

Assay [4] concerns D2 retinas. Kind of assay: Retinal NFL and IPL thinning (Nissl staining) in D2 mice. The format is in vivo, mouse. The settings on record: NAM or pyruvate in drinking water. On the procedure: For Nissl staining, frozen sections were warmed to room temperature, placed in 1:1 alcohol:chloroform ON, and rehydrated through serial alcohol gradient. Slides were washed once in distilled water and stained for 15 mins in 0.1% cresyl violet in distilled water before being differentiated in 95% alcohol, dehydrated in 100% alcohol and cleared in xylene. Slides were prepared as above. Nissl stained retinal sections were imaged using a Nikon Eclipse E200.

In another assay the test system is RGCs. The settings on record: U.S. Pat. No. 7,776,326; injected intravitreally; cited from earlier work.
A further assay relates to dorsal root ganglion. The following applies: U.S. Pat. No. 7,776,326; cited from earlier work.
Assay [5] concerns DBA/2J (D2) mice. Nature of the assay: Optic nerve assessment (PPD staining) and determination of glaucomatous damage in D2 mice. In kind it is in vivo, mouse. The settings on record: for risk factor of developing glaucoma (nerves with severe glaucoma): D2 mice at 12 months, control 0.6.
Text: This diet has no effects on the ocular health of the mice.
PPD stains the myelin sheath of all axons but darkly stains the axoplasm of only damaged axons.
Briefly, intracranial portions of optic nerves were fixed in 4% PFA at RT for 48 hrs, processed and embedded in plastic. A segment of optic nerve from within a region up to 1 mm from the posterior surface of the sclera was sectioned (1 μm thick sections) and stained with PPD. Typically 30-50 sections are taken from each nerve.
Multiple sections of each nerve were considered when determining damage level. Optic nerves were analyzed and determined to have one of 3 damage levels: • (1) No or early damage (NOE) less than 5% axons damaged and no gliosis. This level of damage is seen in age and sex matched non-glaucomatous mice and is not due to glaucoma.

Entries after “also recorded” stand apart in the source; their conditions may differ.

For `NC(=O)c1cccnc1` [NAM, nicotinamide], in the assay on D2 retinas [1], the “lipid droplet formation in the inner retina” value is “prevented; also recorded: prevents lipid droplet formation”. The “NAD(t) levels in retina” value with D2 retinas [2] (D2 Wld^S mice treated with NAM 550 mg/kg/day) is listed as “synergistic; also recorded: additional benefit”; in the assay on D2 retinas [2] (D2 mice, NAM 550 mg/kg/day in drinking water, through to 12-month), “prevented the decline of NAD levels; also recorded: restored; also recorded: increased”. Besides, the PERG amplitude result in the assay with DBA/2J (D2) mice [3] (D2 Wld^S mice, NAM 550 mg/kg/day) is “additional recovery of PERG amplitude”. The “visual function, PERG amplitude” value is recorded as “protect” in the assay on DBA/2J (D2) mice [3] (NAM^Hi 2,000 mg/kg/day) and “restored; also recorded: protect PERG even in aged mice” in the assay on DBA/2J (D2) mice [3] (NAM^Lo 550 mg/kg/day or pyruvate 500 mg/kg/day). In addition, the “synapse loss in early glaucoma (SNAP-25 staining)” value in the assay on SNAP-25 is “protected against early synapse loss; also recorded: prevents synapse loss”. Moreover, the “HIF-1α upregulation / transcriptional induction” value in the assay with HIF-1α is “limited; also recorded: lessens upregulation”. The “loss of PERG amplitude in TNFα injected eyes” value in the assay on C57BL/6J (B6) mice is “protected against; also recorded: prevents”. Further, the “soma loss / cell loss in TNFα injected eyes” value in the assay with C57BL/6J (B6) mice is “protected against; also recorded: prevents”. Also, the “DNA damage (γH2AX staining)” value with γH2AX is “limited levels of DNA damage; also recorded: prevents DNA damage”. Further, the “retinal NFL and IPL thinning (Nissl)” value in the assay with D2 retinas [4] is recorded as “prevented; also recorded: protects”. In the assay with RGCs, the “axon degeneration in RGCs after intravitreal injection” value is recorded as “not protective against axon degeneration in RGCs; also recorded: did not show any difference from the control animals”. The “axonal degeneration after axotomy” value with dorsal root ganglion is “did not work to diminish axonal degeneration”. The “risk factor of developing glaucoma (nerves with severe glaucoma)” value stood at 0.06 with DBA/2J (D2) mice [5] (high dose NAM 2,000 mg/kg/day) and 0.36 in the assay on DBA/2J (D2) mice [5] (low dose NAM 550 mg/kg/day). The “protection against glaucoma compared to Wld^S alone” value in the assay on DBA/2J (D2) mice [5] (D2 mice bearing the Wld^S mutation, NAM 550 mg/kg/day) is on record as “better protects against glaucoma than Wld^S alone; also recorded: significantly better than Wld^S alone”. In the assay with DBA/2J (D2) mice [5] (D2 mice carrying the Wld^S mutation, NAM 550 mg/kg/day from 6 months), the “protection from glaucomatous damage (no glaucoma)” value is reported as around 95%. In addition, the “treated eyes having no glaucomatous optic nerve damage” value in the assay on DBA/2J (D2) mice [5] (D2 mice, NAM 2000 mg/kg/d (NAM^Hi), 12 months of age) stood at 93%. Moreover, the protective in glaucoma entry with DBA/2J (D2) mice [5] (D2 mice, NAM alone (550 mg/kg/day)) is listed as “about 70%”. In addition, in the assay on DBA/2J (D2) mice [5] (D2 mice, high dose NAM 2,000 mg/kg/day), the “decrease in risk factor of developing glaucoma” value is given as 10 fold. Also, the “drop in risk factor” value in the assay on DBA/2J (D2) mice [5] (D2 mice, low dose NAM 550 mg/kg/day) is given as around 2 fold.
